The supplement of paper PMC10307832

How the values were obtained:
Assay in all cases: relative viability (nuclei count vs DMSO), 5 days (fraction); higher = more cells survive
[1] = tested on: A549
Method in brief: (§1)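 Lung cancer cell lines, seeded in 1536-well plates, were treated the following day by pin tool with a single drug or with five library-drug doses (not always all listed) in √10 steps on top of a fixed anchor-drug dose. Cells were fixed and nuclei stained in one step after 5 days, and nuclei were counted. Relative viability is the nuclei count for treated wells divided by that for vehicle wells, reported as medians of duplicate plates.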

[2] = tested on: Calu-6
Method in brief: as §1

[3] = tested on: EBC-1
Method in brief: as §1

[4] = tested on: IA-LM
Method in brief: as §1

[5] = tested on: NCI-H1299
Method in brief: as §1

[6] = tested on: NCI-H1703
Method in brief: as §1

[7] = tested on: NCI-H2009
Method in brief: as §1

[8] = tested on: NCI-H460
Method in brief: as §1

[9] = tested on: NCI-H661
Method in brief: as §1

`CC1(C)CCC(c2ccc(Cl)cc2)=C(CN2CCN(c3ccc(C(=O)NS(=O)(=O)c4ccc(N[C@H](CCN5CCOCC5)CSc5ccccc5)c(S(=O)(=O)C(F)(F)F)c4)cc3)CC2)C1` [Navitoclax] + C[C@@H](Oc1cc(-c2cnn(C3CCNCC3)c2)cnc1N)c1c(Cl)ccc(F)c1Cl [Crizotinib] (partner 1 µM) was tested. Which relative viability ([1]; first compound 0.005 µM) did it give?
Its relative viability is 0.756.

What about the relative viability ([1]; first compound 0.01581 µM) of the same compound?
The relative viability was 0.805.

And the relative viability ([1]; first compound 0.05 µM)?
Its relative viability is 0.825.

And the relative viability ([1]; first compound 0.1581 µM)?
Its relative viability is 0.729.

What about the relative viability ([1]; first compound 0.5 µM) of the same compound?
The relative viability was 0.744.

And the relative viability ([2]; first compound 0.005 µM)?
The relative viability was 0.843.

And the relative viability ([2]; first compound 0.01581 µM)?
The relative viability was 0.812.

What about the relative viability ([2]; first compound 0.05 µM) of the same compound?
The relative viability was 0.894.

What about the relative viability ([2]; first compound 0.1581 µM) of the same compound?
The relative viability was 0.741.

And the relative viability ([2]; first compound 0.5 µM)?
Its relative viability is 0.78.

And the relative viability ([3]; first compound 0.005 µM)?
Its relative viability is 0.178.

And the relative viability ([3]; first compound 0.01581 µM)?
Its relative viability is 0.227.

And the relative viability ([3]; first compound 0.05 µM)?
The relative viability was 0.192.

What about the relative viability ([3]; first compound 0.1581 µM) of the same compound?
Its relative viability is 0.195.

What about the relative viability ([3]; first compound 0.5 µM) of the same compound?
The relative viability was 0.204.

And the relative viability ([4]; first compound 0.005 µM)?
The relative viability was 0.861.

And the relative viability ([4]; first compound 0.01581 µM)?
The relative viability was 0.636.

What about the relative viability ([4]; first compound 0.05 µM) of the same compound?
Its relative viability is 0.875.

And the relative viability ([4]; first compound 0.1581 µM)?
The relative viability was 0.944.

What about the relative viability ([4]; first compound 0.5 µM) of the same compound?
Its relative viability is 0.908.

What about the relative viability ([5]; first compound 0.005 µM) of the same compound?
Its relative viability is 0.99.

What about the relative viability ([5]; first compound 0.01581 µM) of the same compound?
The relative viability was 0.99.

And the relative viability ([5]; first compound 0.05 µM)?
Its relative viability is 1.02.

And the relative viability ([5]; first compound 0.1581 µM)?
The relative viability was 0.926.

And the relative viability ([5]; first compound 0.5 µM)?
Its relative viability is 0.981.

What about the relative viability ([6]; first compound 0.005 µM) of the same compound?
The relative viability was 0.73.

What about the relative viability ([6]; first compound 0.01581 µM) of the same compound?
The relative viability was 0.602.

What about the relative viability ([6]; first compound 0.05 µM) of the same compound?
Its relative viability is 1.22.

And the relative viability ([6]; first compound 0.1581 µM)?
The relative viability was 0.726.

What about the relative viability ([6]; first compound 0.5 µM) of the same compound?
The relative viability was 0.754.

What about the relative viability ([7]; first compound 0.005 µM) of the same compound?
The relative viability was 0.972.

And the relative viability ([7]; first compound 0.01581 µM)?
Its relative viability is 1.05.

And the relative viability ([7]; first compound 0.05 µM)?
The relative viability was 1.1.

What about the relative viability ([7]; first compound 0.1581 µM) of the same compound?
Its relative viability is 1.13.

And the relative viability ([7]; first compound 0.5 µM)?
The relative viability was 1.05.

What about the relative viability ([8]; first compound 0.005 µM) of the same compound?
The relative viability was 0.805.

And the relative viability ([8]; first compound 0.01581 µM)?
The relative viability was 0.915.

And the relative viability ([8]; first compound 0.05 µM)?
Its relative viability is 0.979.

What about the relative viability ([8]; first compound 0.1581 µM) of the same compound?
The relative viability was 0.894.

What about the relative viability ([8]; first compound 0.5 µM) of the same compound?
Its relative viability is 0.874.

And the relative viability ([9]; first compound 0.005 µM)?
The relative viability was 1.12.

And the relative viability ([9]; first compound 0.01581 µM)?
The relative viability was 0.964.

What about the relative viability ([9]; first compound 0.05 µM) of the same compound?
Its relative viability is 0.947.

What about the relative viability ([9]; first compound 0.1581 µM) of the same compound?
The relative viability was 0.951.

What about the relative viability ([9]; first compound 0.5 µM) of the same compound?
The relative viability was 1.

Which results are given for `Oc1nc(-c2ccc(C(F)(F)F)cc2)nc2c1CSCC2` [XAV939] + Cc1nc(NC(=O)N2CCC[C@H]2C(N)=O)sc1-c1ccnc(C(C)(C)C(F)(F)F)c1 [Alpelisib] (partner 2 µM)?
relative viability ([1]; first compound 0.08 µM): 0.877; relative viability ([1]; first compound 0.253 µM): 0.371; relative viability ([1]; first compound 0.8 µM): 0.484; relative viability ([1]; first compound 2.53 µM): 0.524; relative viability ([2]; first compound 0.08 µM): 1.08; relative viability ([2]; first compound 0.253 µM): 0.887; relative viability ([2]; first compound 0.8 µM): 0.919; relative viability ([2]; first compound 2.53 µM): 0.948; relative viability ([3]; first compound 0.08 µM): 0.874; relative viability ([3]; first compound 0.253 µM): 0.71; relative viability ([3]; first compound 0.8 µM): 0.716; relative viability ([3]; first compound 2.53 µM): 0.726; relative viability ([4]; first compound 0.08 µM): 0.77; relative viability ([4]; first compound 0.253 µM): 0.693; relative viability ([4]; first compound 0.8 µM): 0.705; relative viability ([4]; first compound 2.53 µM): 0.557; relative viability ([5]; first compound 0.08 µM): 1.08; relative viability ([5]; first compound 0.253 µM): 1.04; relative viability ([5]; first compound 0.8 µM): 1.09; relative viability ([5]; first compound 2.53 µM): 1.11; relative viability ([6]; first compound 0.08 µM): 0.397; relative viability ([6]; first compound 0.253 µM): 0.301; relative viability ([6]; first compound 0.8 µM): 0.307; relative viability ([6]; first compound 2.53 µM): 0.324; relative viability ([7]; first compound 0.08 µM): 1.22; relative viability ([7]; first compound 0.253 µM): 1.2; relative viability ([7]; first compound 0.8 µM): 1.12; relative viability ([7]; first compound 2.53 µM): 0.987; relative viability ([8]; first compound 0.08 µM): 0.679; relative viability ([8]; first compound 0.253 µM): 0.36; relative viability ([8]; first compound 0.8 µM): 0.53; relative viability ([8]; first compound 2.53 µM): 0.359; relative viability ([9]; first compound 0.08 µM): 0.655; relative viability ([9]; first compound 0.253 µM): 0.621; relative viability ([9]; first compound 0.8 µM): 0.833; relative viability ([9]; first compound 2.53 µM): 0.492

How did the relative viability ([1]; first compound 0.08 µM) turn out when `C=C1C(=O)O[C@@H](CCCCCCCC)[C@@H]1C(=O)O` [C-75] + C[C@@H](Oc1cc(-c2cnn(C3CCNCC3)c2)cnc1N)c1c(Cl)ccc(F)c1Cl [Crizotinib] (partner 1 µM) was run?
Its relative viability is 0.763.

What about the relative viability ([1]; first compound 0.253 µM) of the same compound?
Its relative viability is 0.715.

And the relative viability ([1]; first compound 0.8 µM)?
Its relative viability is 0.651.

What about the relative viability ([1]; first compound 2.53 µM) of the same compound?
The relative viability was 0.81.

And the relative viability ([1]; first compound 8 µM)?
Its relative viability is 0.593.

And the relative viability ([2]; first compound 0.08 µM)?
The relative viability was 0.816.

And the relative viability ([2]; first compound 0.253 µM)?
Its relative viability is 0.824.

And the relative viability ([2]; first compound 0.8 µM)?
Its relative viability is 0.711.

What about the relative viability ([2]; first compound 2.53 µM) of the same compound?
The relative viability was 0.623.

And the relative viability ([2]; first compound 8 µM)?
Its relative viability is 0.761.

And the relative viability ([3]; first compound 0.08 µM)?
Its relative viability is 0.179.

And the relative viability ([3]; first compound 0.253 µM)?
The relative viability was 0.184.

And the relative viability ([3]; first compound 0.8 µM)?
Its relative viability is 0.225.

What about the relative viability ([3]; first compound 2.53 µM) of the same compound?
The relative viability was 0.179.

And the relative viability ([3]; first compound 8 µM)?
Its relative viability is 0.211.

And the relative viability ([4]; first compound 0.08 µM)?
The relative viability was 0.956.

And the relative viability ([4]; first compound 0.253 µM)?
Its relative viability is 1.09.

What about the relative viability ([4]; first compound 8 µM) of the same compound?
The relative viability was 0.504.

What about the relative viability ([5]; first compound 0.08 µM) of the same compound?
Its relative viability is 0.939.

And the relative viability ([5]; first compound 0.253 µM)?
Its relative viability is 0.932.

And the relative viability ([5]; first compound 0.8 µM)?
The relative viability was 0.967.

And the relative viability ([5]; first compound 2.53 µM)?
The relative viability was 0.853.

What about the relative viability ([5]; first compound 8 µM) of the same compound?
Its relative viability is 0.927.

What about the relative viability ([6]; first compound 0.08 µM) of the same compound?
Its relative viability is 0.688.

What about the relative viability ([6]; first compound 0.8 µM) of the same compound?
The relative viability was 0.495.

And the relative viability ([6]; first compound 2.53 µM)?
The relative viability was 0.683.

What about the relative viability ([6]; first compound 8 µM) of the same compound?
The relative viability was 0.587.

And the relative viability ([7]; first compound 0.08 µM)?
Its relative viability is 1.04.

And the relative viability ([7]; first compound 0.253 µM)?
The relative viability was 1.01.

What about the relative viability ([7]; first compound 0.8 µM) of the same compound?
Its relative viability is 0.987.

And the relative viability ([7]; first compound 2.53 µM)?
Its relative viability is 0.78.

And the relative viability ([7]; first compound 8 µM)?
Its relative viability is 0.968.

What about the relative viability ([8]; first compound 0.08 µM) of the same compound?
The relative viability was 0.88.

And the relative viability ([8]; first compound 0.253 µM)?
The relative viability was 1.07.

What about the relative viability ([8]; first compound 0.8 µM) of the same compound?
The relative viability was 0.696.

What about the relative viability ([8]; first compound 8 µM) of the same compound?
The relative viability was 0.696.

What about the relative viability ([9]; first compound 0.08 µM) of the same compound?
Its relative viability is 1.1.

And the relative viability ([9]; first compound 0.253 µM)?
The relative viability was 1.02.

And the relative viability ([9]; first compound 0.8 µM)?
The relative viability was 1.04.

What about the relative viability ([9]; first compound 2.53 µM) of the same compound?
Its relative viability is 0.933.

What about the relative viability ([9]; first compound 8 µM) of the same compound?
The relative viability was 1.09.
